Test results from PMC4658182, “The Synthetic Antimicrobial Peptide 19-2.5 Interacts with Heparanase and Heparan Sulfate in Murine and Human Sepsis” (PLoS ONE, 2015).

Experiments:
heparanase = assay: Plasma heparanase level (ELISA), CLP septic mice; format: in vivo, murine; settings: CLP-mice (NMRI), 24 h after CLP, peptide i.v. infusion 20 μg/ml, 100 μl/h vs NaCl 0.9%, n = 6 per group, Fig 1A, ***p < 0.0001
Procedure: Heparanase levels in human and murine plasma were measured using a commercial ELISA kit (No.: E03H0100, AMS Biotechnology, Oxon, United Kingdom) according to the manufacturer’s instructions. The ELISA´s detection range is 1.0 ng/ml– 5000 ng/ml.
The murine model of polymicrobial sepsis was divided into three steps as described before. Briefly, in a first step 12 NMRI mice underwent a catheterization procedure under general (isoflurane 1% to 2% in oxygen/air mix with a FiO2 of 0.3) and local (0.2 ml lidocaine 2%) anesthesia. A central vein catheter (PE-tube, self-made) was implanted in the jugular vein. After further local infiltration with lidocaine, the neck was closed by single suture. To prevent hypothermia all animals were kept on a heating pad throughout the surgical procedure. Mice were transferred back into the cage to rest for 48h. The i.v.-line was connected to the syringe pump at a rate of 100 μl/h (NaCl 0.9%).
In a second step, general and local anesthesia for cecal ligature and puncture (CLP) was performed as described above. The animal were transferred to the cage and reconnected with the i.v.-line. Depending on the group, peptide 19–2.5 infusion (20 μg/ml, 100 μl/h) or NaCl 0.9% infusion (100 μl/h) was started.
Finally, in a third step all animals were killed 24 h after CLP. […]

[1] = cited from earlier work
Source text: Since heparanase is the major mammalian enzyme liberating circulating HS-fragments, we investigated heparanase activity in mice subjected to CLP. […] Additionally, the inhibition of heparanase is lung-protective in murine sepsis. Recently, it was sh ...

[2] = test system: Gram-negative and Gram-positive bacteria as well as against viruses; settings: cited from earlier work
Source text: (§1) The synthetic antimicrobial peptide 19–2.5 belongs to the class of synthetic anti-lipopolysaccharide peptides (SALP = synthetic anti-LPS peptides). […] We recently reported that peptide 19–2.5 is able to decrease the inflammatory response in murine cells stimulated with both PAM ...

mice = settings: cited from earlier work
Source text: as §1

Substance: peptide 19–2.5: synthetic antimicrobial peptide 19–2.5 belongs to the class of synthetic anti-lipopolysaccharide peptides (SALP = synthetic anti-LPS peptides)
- plasma heparanase level, untreated CLP-mice vs peptide-treated (heparanase): significantly higher levels of plasma heparanase compared to mice treated with peptide 19–2.5
- effect on LPS aggregate structure and pro-inflammatory effects [1]: changes the aggregate structure of LPS thereby neutralizing the pro-inflammatory effects of LPS
- anti-inflammatory activity [2]: shows anti-inflammatory activity against Gram-negative and Gram-positive bacteria as well as against viruses
- protection from lethal septic shock (mice): protects mice from lethal septic shock
